The record followed here is patent US12122763B2, “Substituted piperidines for androgen receptor degradation” (UBIX THERAPEUTICS, INC., priority 2020, dated 2024).

The test concerns the target T1, Androgen Receptor (AR) protein (Homo sapiens, UniProt P10275, T878A).
T1 construct: endogenous in cells; host or cells: LNCaP
The test is described as follows: Androgen Receptor (AR) protein degradation assay in LNCaP cells, western blotting. It is filed as cell-based. The conditions noted are these: 20 h; for inhibition at 0.01 µM: 0.01 μM compound; for inhibition at 0.1 µM: 0.1 μM compound; for inhibition at 1 µM: 1 μM compound; for inhibition at 10 µM: 10 μM compound. In short, it runs like this: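 AR protein level was detected by western blot (ECL) against GAPDH or β-actin controls, with 8 μg lysate protein loaded per lane after BCA quantification. Lysates came from LNCaP cells exposed to test compound for 20 h, following 3 days of growth in RPMI/10% FBS.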
A general note: Immunoblotting shows a protein as a band on a membrane.

T1 sequence (P10275 whole entry T878A): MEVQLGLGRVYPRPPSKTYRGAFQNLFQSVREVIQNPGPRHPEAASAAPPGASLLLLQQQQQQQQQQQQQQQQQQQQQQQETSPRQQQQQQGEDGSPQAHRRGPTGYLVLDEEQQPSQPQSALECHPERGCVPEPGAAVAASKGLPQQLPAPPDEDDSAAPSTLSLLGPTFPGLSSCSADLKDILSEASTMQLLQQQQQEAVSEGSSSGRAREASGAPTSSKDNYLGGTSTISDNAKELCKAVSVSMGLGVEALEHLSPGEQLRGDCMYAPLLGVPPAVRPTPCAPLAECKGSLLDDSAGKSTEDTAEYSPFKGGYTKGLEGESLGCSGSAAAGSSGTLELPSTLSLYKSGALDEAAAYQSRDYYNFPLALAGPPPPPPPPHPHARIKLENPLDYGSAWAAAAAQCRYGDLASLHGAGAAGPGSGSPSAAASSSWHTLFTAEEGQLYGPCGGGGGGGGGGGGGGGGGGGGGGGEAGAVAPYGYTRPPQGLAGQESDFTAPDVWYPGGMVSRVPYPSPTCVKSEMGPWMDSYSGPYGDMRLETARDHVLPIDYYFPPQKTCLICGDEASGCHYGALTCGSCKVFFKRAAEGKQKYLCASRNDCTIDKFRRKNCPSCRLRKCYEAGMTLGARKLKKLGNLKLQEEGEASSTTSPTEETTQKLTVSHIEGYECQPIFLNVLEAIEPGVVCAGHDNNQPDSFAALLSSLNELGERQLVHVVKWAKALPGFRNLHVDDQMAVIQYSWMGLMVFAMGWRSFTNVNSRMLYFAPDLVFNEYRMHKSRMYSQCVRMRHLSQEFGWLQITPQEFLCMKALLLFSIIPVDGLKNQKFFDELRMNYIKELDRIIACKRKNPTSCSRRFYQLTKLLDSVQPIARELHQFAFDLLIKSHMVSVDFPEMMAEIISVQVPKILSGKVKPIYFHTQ
T1 sequence (Q96SW2 whole entry partner): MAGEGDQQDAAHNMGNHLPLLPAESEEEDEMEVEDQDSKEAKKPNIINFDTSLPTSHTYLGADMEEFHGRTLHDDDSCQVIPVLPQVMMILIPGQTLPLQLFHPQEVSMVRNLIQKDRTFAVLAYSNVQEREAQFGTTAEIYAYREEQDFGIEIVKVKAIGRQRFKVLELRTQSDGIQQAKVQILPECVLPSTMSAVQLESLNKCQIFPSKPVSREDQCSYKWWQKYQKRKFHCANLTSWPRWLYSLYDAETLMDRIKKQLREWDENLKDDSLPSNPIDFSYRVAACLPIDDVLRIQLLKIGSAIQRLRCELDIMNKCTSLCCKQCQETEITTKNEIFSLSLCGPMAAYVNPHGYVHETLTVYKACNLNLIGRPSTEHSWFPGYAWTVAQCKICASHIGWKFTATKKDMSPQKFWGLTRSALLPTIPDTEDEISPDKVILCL

In the case of `N#Cc1ccc(N2CCC(C(=O)Nc3ccc(N4CCC(CN5CCN(C[C@H]6CCN(c7cc8c(cc7F)C(=O)N(C7CCC(=O)NC7=O)C8=O)C6)CC5)CC4)cn3)CC2)cc1C(F)(F)F` (stereo partly drawn) [Example 19, 1-(4-cyano-3-(trifluoromethyl)phenyl)-N-(5-(4-((4-(((3R)-1-(2-(2,6-dioxopiperidin-3-yl)-6-fluoro-1,3-dioxoisoindolin-5-yl)pyrrolidin-3-yl)methyl)piperazin-1-yl)methyl)piperidin-1-yl)pyridin-2-yl)piperidine-4-carboxamide], the inhibition (as a rule, the change of the read-out against control, counted positive when it falls) at 0.01 µM was 42%; the inhibition at 0.1 µM came to 93%; the inhibition at 1 µM was found to be 96%.
`N#Cc1ccc(N2CCC(C(=O)Nc3ccc(N4CCC(CN5CCN(CC6CCN(c7ccc8c(n7)CN(C7CCC(=O)NC7=O)C8=O)CC6)CC5)CC4)cn3)CC2)cc1C(F)(F)F` (stereo not shown) [Example 34, 1-(4-cyano-3-(trifluoromethyl)phenyl)-N-(5-(4-((4-((1-(6-(2,6-dioxopiperidin-3-yl)-5-oxo-6,7-dihydro-5H-pyrrolo[3,4-b]pyridin-2-yl)piperidin-4-yl)methyl)piperazin-1-yl)methyl)piperidin-1-yl)pyridin-2-yl)piperidine-4-carboxamide]: the inhibition at 0.01 µM amounted to 88%, the inhibition at 0.1 µM is 99% and the inhibition at 1 µM was 96%.
For `N#Cc1ccc(N2CCC(C(=O)Nc3ccc(N4CCC(CN5CCN(C[C@@H]6CCCN(c7ccc8c(c7)C(=O)N(C7CCC(=O)NC7=O)C8=O)C6)CC5)CC4)cn3)CC2)cc1C(F)(F)F` (stereo partly drawn) [Example 17, 1-(4-cyano-3-(trifluoromethyl)phenyl)-N-(5-(4-((4-(((3S)-1-(2-(2,6-dioxopiperidin-3-yl)-1,3-dioxoisoindolin-5-yl)piperidin-3-yl)methyl)piperazin-1-yl)methyl)piperidin-1-yl)pyridin-2-yl)piperidine-4-carboxamide] the same measures were 44%, 90% and 90%.
The corresponding values for `N#Cc1ncc(N2CCC(F)(C(=O)Nc3ccc(N4CCC(CN5CCN(C6CCN(c7ccc8c(c7)C(=O)N(C7CCC(=O)NC7=O)C8=O)CC6)CC5)CC4)cn3)CC2)cc1C(F)(F)F` (stereo not shown) [Example 74, 1-(6-cyano-5-(trifluoromethyl)pyridin-3-yl)-N-(5-(4-((4-(1-(2-(2,6-dioxopiperidin-3-yl)-1,3-dioxoisoindolin-5-yl)piperidin-4-yl)piperazin-1-yl)methyl)piperidin-1-yl)pyridin-2-yl)-4-fluoropiperidine-4-carboxamide] are 20%, 66% and 83%.
The corresponding values for `C[C@@H]1CN(C2CCN(c3ccc4c(c3)C(=O)N(C3CCC(=O)NC3=O)C4=O)CC2)CCN1CC1CCN(c2ccc(NC(=O)C3CCN(c4ccc(C#N)c(C(F)(F)F)c4)CC3)nc2)CC1` (stereo partly drawn) [Example 42, 1-(4-cyano-3-(trifluoromethyl)phenyl)-N-(5-(4-(((2R)-4-(1-(2-(2,6-dioxopiperidin-3-yl)-1,3-dioxoisoindolin-5-yl)piperidin-4-yl)-2-methylpiperazin-1-yl)methyl)piperidin-1-yl)pyridin-2-yl)piperidine-4-carboxamide] are 65%, 96% and 94%.
Turning to `N#Cc1ccc(N2CCC(C(=O)Nc3ccc(N4CCC(CN5CC6(CCN(c7ccc8c(c7)C(=O)N(C7CCC(=O)NC7=O)C8=O)CC6)C5)CC4)cn3)CC2)cc1Cl` (stereo not shown) [Example 50, 1-(3-chloro-4-cyanophenyl)-N-(5-(4-((7-(2-(2,6-dioxopiperidin-3-yl)-1,3-dioxoisoindolin-5-yl)-2,7-diazaspiro[3.5]nonan-2-yl)methyl)piperidin-1-yl)pyridin-2-yl)piperidine-4-carboxamide], the inhibition at 0.01 µM was 61%, the inhibition at 0.1 µM came out at 97%, the inhibition at 1 µM was determined as 99% and the inhibition at 10 µM is 98%.
Turning to `N#Cc1ccc(N2CCC(C(=O)Nc3ccc(N4CC(CN5CCC(CN6CCN(c7ccc8c(c7)C(=O)N(C7CCC(=O)NC7=O)C8=O)CC6)CC5)C4)cn3)CC2)cc1C(F)(F)F` (stereo not shown) [Example 190, 1-(4-cyano-3-(trifluoromethyl)phenyl)-N-(5-(3-((4-((4-(2-(2,6-dioxopiperidin-3-yl)-1,3-dioxoisoindolin-5-yl)piperazin-1-yl)methyl)piperidin-1-yl)methyl)azetidin-1-yl)pyridin-2-yl)piperidine-4-carboxamide], the inhibition at 0.01 µM was -11% and the inhibition at 0.1 µM is 61%.
Consider `N#Cc1ccc(N2CCC(C(=O)Nc3ccc(N4CCN(C(=O)CCCCCNc5ccc6c(c5)C(=O)N(C5CCC(=O)NC5=O)C6=O)CC4)cn3)CC2)cc1Cl` (stereo not shown) [Example 112, 1-(3-chloro-4-cyanophenyl)-N-(5-(4-(6-((2-(2,6-dioxopiperidin-3-yl)-1,3-dioxoisoindolin-5-yl)amino)hexanoyl)piperazin-1-yl)pyridin-2-yl)piperidine-4-carboxamide], for which the inhibition at 0.01 µM stood at 9%, the inhibition at 0.1 µM was determined as 55%, the inhibition at 1 µM was 50% and the inhibition at 10 µM turned out to be 48%.
Take `N#Cc1ccc(N2CCC(C(=O)Nc3ccc(N4CC5(CCN(CC6CN(c7ccc8c(c7)C(=O)N(C7CCC(=O)NC7=O)C8=O)C6)CC5)C4)cn3)CC2)cc1C(F)(F)F` (stereo not shown) [Example 123, 1-(4-cyano-3-(trifluoromethyl)phenyl)-N-(5-(7-((1-(2-(2,6-dioxopiperidin-3-yl)-1,3-dioxoisoindolin-5-yl)azetidin-3-yl)methyl)-2,7-diazaspiro[3.5]nonan-2-yl)pyridin-2-yl)piperidine-4-carboxamide]: the inhibition at 0.01 µM was 55%, the inhibition at 0.1 µM is 91% and the inhibition at 1 µM was determined as 97%.
Regarding `N#Cc1ccc(N2CCC(C(=O)Nc3ccc(N4CCC(CN5CCN(C[C@@H]6CCN(c7ccc8c(c7)C(=O)N(C7CCC(=O)NC7=O)C8=O)C6)CC5)CC4)cn3)CC2)cc1C(F)(F)F` (stereo partly drawn) [Example 15, 1-(4-cyano-3-(trifluoromethyl)phenyl)-N-(5-(4-((4-(((3S)-1-(2-(2,6-dioxopiperidin-3-yl)-1,3-dioxoisoindolin-5-yl)pyrrolidin-3-yl)methyl)piperazin-1-yl)methyl)piperidin-1-yl)pyridin-2-yl)piperidine-4-carboxamide], the inhibition at 0.01 µM came out at 60%, the inhibition at 0.1 µM worked out at 97% and the inhibition at 1 µM is 98%.
For `N#Cc1ccc(N2CCC(C(=O)Nc3ccc(N4CCC(CCN5CCN(C6CN(c7ccc8c(c7)C(=O)N(C7CCC(=O)NC7=O)C8=O)C6)CC5)CC4)cn3)CC2)cc1C(F)(F)F` (stereo not shown) [Example 99, 1-(4-cyano-3-(trifluoromethyl)phenyl)-N-(5-(4-(2-(4-(1-(2-(2,6-dioxopiperidin-3-yl)-1,3-dioxoisoindolin-5-yl)azetidin-3-yl)piperazin-1-yl)ethyl)piperidin-1-yl)pyridin-2-yl)piperidine-4-carboxamide] the same measures were 70%, 98% and 96%.
The corresponding values for `N#Cc1ccc(N2CCC(C(=O)Nc3ccc(N4CCC(CCN5CCN(C6CN(c7ccc8c(n7)CN(C7CCC(=O)NC7=O)C8=O)C6)CC5)CC4)cn3)CC2)cc1C(F)(F)F` (stereo not shown) [Example 100, 1-(4-cyano-3-(trifluoromethyl)phenyl)-N-(5-(4-(2-(4-(1-(6-(2,6-dioxopiperidin-3-yl)-5-oxo-6,7-dihydro-5H-pyrrolo[3,4-b]pyridin-2-yl)azetidin-3-yl)piperazin-1-yl)ethyl)piperidin-1-yl)pyridin-2-yl)piperidine-4-carboxamide] are 31%, 84% and 89%.
Regarding `N#Cc1ccc(N2CCC(C(=O)Nc3ccc(N4CCC(CCN5CCN(c6ccc(C(=O)NC7CCC(=O)NC7=O)nc6)CC5)CC4)cn3)CC2)cc1C(F)(F)F` (stereo not shown) [Example 107, 5-(4-(2-(1-(6-(1-(4-cyano-3-(trifluoromethyl)phenyl)piperidine-4-carboxamido)pyridin-3-yl)piperidin-4-yl)ethyl)piperazin-1-yl)-N-(2,6-dioxopiperidin-3-yl)picolinamide], the inhibition at 0.01 µM was 44%, the inhibition at 0.1 µM came to 85% and the inhibition at 1 µM was 93%.
For `N#Cc1ccc(N2CCC(F)(C(=O)Nc3ccc(N4CCC(CCN5CCN(c6ccc7c(c6)C(=O)N(C6CCC(=O)NC6=O)C7=O)CC5)CC4)cn3)CC2)cc1C(F)(F)F` (stereo not shown) [Example 88, 1-(4-cyano-3-(trifluoromethyl)phenyl)-N-(5-(4-(2-(4-(2-(2,6-dioxopiperidin-3-yl)-1,3-dioxoisoindolin-5-yl)piperazin-1-yl)ethyl)piperidin-1-yl)pyridin-2-yl)-4-fluoropiperidine-4-carboxamide] the same measures were 35%, 87% and 96%.
For `N#Cc1ccc(N2CCC(C(=O)Nc3ccc(OCC4CN(CC5CCN(c6ccc7c(c6)C(=O)N(C6CCC(=O)NC6=O)C7=O)CC5)C4)cn3)CC2)cc1C(F)(F)F` (stereo not shown) [Example 185, 1-(4-cyano-3-(trifluoromethyl)phenyl)-N-(5-((1-((1-(2-(2,6-dioxopiperidin-3-yl)-1,3-dioxoisoindolin-5-yl)piperidin-4-yl)methyl)azetidin-3-yl)methoxy)pyridin-2-yl)piperidine-4-carboxamide] the same measures were 85%, 97% and 99%.
